US10206893B2, “Immunoregulatory agents” (Flexus Biosciences, Inc., priority 2014, dated 2019)
pIC50: −log10 of the molar value.

molecular target: T1, human IDO1 (Homo sapiens, UniProt P14902); assay: IDO inhibition assay in HEK293 cells stably expressing human IDO1 (kynurenine, Ehrlich reagent); assay type: cell-based; conditions: 20 hours incubation, read-out: HEK Human IDO-1 Bio Activity
T1 construct: expressed in transfected cells
Protocol: They were cultured in medium (DMEM with 10% FBS) containing 1 mg/ml G418 for two weeks.
The human IDO1/HEK293 cells were seeded at 10,000 cells per 50 μL per well with RPMI/phenol red free media contains 10% FBS in a 384-well black wall clear bottom tissue culture plate (Matrix Technologies LLC) 100 nL of certain concentration of compound was then added to each well using ECHO liquid handling systems. The cells were incubated for 20 hours in 37° C. incubator with 5% CO2.
The compound treatments were stopped by adding trichloroacetic acid (Sigma-Aldrich) to a final concentration at 0.2%. The cell plate was further incubated at 50° C. for 30 minute. The equal volume supernatant (20 μL) and 0.2% (w/v) Ehrlich reagent (4-dimethylaminobenzaldehyde, Sigma-Aldrich) in glacial acetic acid were mixed in a new clear bottom 384-well plate. This plate was then incubated at room temperature for 30 minute. The absorbance at 490 nm was measured on Envision plate reader.

T1 sequence (P14902 whole entry): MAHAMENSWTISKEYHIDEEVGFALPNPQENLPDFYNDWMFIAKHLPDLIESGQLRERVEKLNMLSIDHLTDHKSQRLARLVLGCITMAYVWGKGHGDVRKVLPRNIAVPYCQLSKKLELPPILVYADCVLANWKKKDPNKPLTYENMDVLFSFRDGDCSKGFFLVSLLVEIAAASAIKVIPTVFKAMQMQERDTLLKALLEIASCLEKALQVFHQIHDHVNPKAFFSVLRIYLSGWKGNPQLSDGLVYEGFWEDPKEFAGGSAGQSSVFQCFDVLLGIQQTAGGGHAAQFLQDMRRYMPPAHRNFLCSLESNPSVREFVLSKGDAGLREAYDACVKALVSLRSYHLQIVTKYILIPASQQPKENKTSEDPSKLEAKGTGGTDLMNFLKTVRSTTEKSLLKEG

Row | Molecule | pIC50
1 | N#Cc1ccc(NC(=O)N[C@H]2CC[C@H](c3ccnc4ccc(F)cc43)CC2)cc1 [Example 121] | > 6.60
2 | CCC(NC(=O)c1ccc(-c2ccccc2)cc1)[C@H]1CC[C@@H](c2cnc3ccccc3c2)CC1 (stereo partly drawn) [Example 200] | > 6.60
3 | CC[C@@H](NC(=O)c1ccc(-c2ccccc2)cc1)[C@H]1CC[C@H](c2cnc3ccccc3c2)CC1 [Example 201, N—((R)-1-((1r,4R)-4-(quinolin-3-yl)cyclohexyl)propyl)-[1,1′-biphenyl]-4-carboxamide] | > 6.60
4 | CC[C@H](NC(=O)c1ccc(-c2ccccc2)cc1)[C@H]1CC[C@H](c2cnc3ccccc3c2)CC1 [Example 202, N—((S)-1-((1r,4S)-4-(quinolin-3-yl)cyclohexyl)propyl)-[1,1′-biphenyl]-4-carboxamide] | > 7.30
5 | COc1ccc(-c2ccc(C(=O)N[C@H](C)[C@H]3CC[C@@H](c4ccnc5ccc(F)cc54)CC3)cc2)nc1 [Example 239, N-((R)-1-((1s,4S)-4-(6-fluoroquinolin-4-yl)cyclohexyl)ethyl)-4-(5-methoxypyridin-2-yl)benzamide] | > 7.30
6 | (R)-1-(cis-4-(6-fluoroquinolin-4- yl)cyclohexyl)-N-methylethanamine [Example 194] | > 7.30
